# Measured values taken from PubChem BioAssay (NCI).
#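 How tested: cells in 96-well plates exposed to compound for 48 hours at five concentrations. GI50 is the concentration that inhibits growth by half. At the TGI there is no net growth.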
# Legend:
# Assay in all cases: inhibition of tumour cell growth, NCI panel, 48 h
# HL-60(TB) leukemia = tested on: HL-60(TB) leukemia
# HOP-92 NSCLC = tested on: HOP-92 NSCLC
# MCF7 breast = tested on: MCF7 breast
# EKVX NSCLC = tested on: EKVX NSCLC
# SK-MEL-5 melanoma = tested on: SK-MEL-5 melanoma
# IGROV1 ovarian = tested on: IGROV1 ovarian
# NCI-H23 lung = tested on: NCI-H23 lung
# A498 renal = tested on: A498 renal
# MALME-3M melanoma = tested on: MALME-3M melanoma
# BT-549 breast = tested on: BT-549 breast
# UACC-62 melanoma = tested on: UACC-62 melanoma
# NCI/ADR-RES ovarian = tested on: NCI/ADR-RES ovarian
# COLO 205 colon = tested on: COLO 205 colon
# CAKI-1 renal = tested on: CAKI-1 renal
# SK-OV-3 ovarian = tested on: SK-OV-3 ovarian
# PC-3 prostate = tested on: PC-3 prostate
# SW-620 colon = tested on: SW-620 colon
# HCT-116 colon = tested on: HCT-116 colon
# OVCAR-8 ovarian = tested on: OVCAR-8 ovarian
# SR leukemia = tested on: SR leukemia
# OVCAR-5 ovarian = tested on: OVCAR-5 ovarian
# NCI-H226 lung = tested on: NCI-H226 lung
# SN12C renal = tested on: SN12C renal
# MDA-MB-435 = tested on: MDA-MB-435
# NCI-H460 lung = tested on: NCI-H460 lung
# DU-145 prostate = tested on: DU-145 prostate
# U251 CNS = tested on: U251 CNS
# 786-0 renal = tested on: 786-0 renal
# CCRF-CEM leukemia = tested on: CCRF-CEM leukemia
# SNB-19 CNS = tested on: SNB-19 CNS
# SF-268 CNS = tested on: SF-268 CNS
# SF-539 CNS = tested on: SF-539 CNS
# HOP-62 NSCLC = tested on: HOP-62 NSCLC
# OVCAR-3 ovarian = tested on: OVCAR-3 ovarian
# RXF 393 renal = tested on: RXF 393 renal
# LOX IMVI melanoma = tested on: LOX IMVI melanoma
# SK-MEL-2 melanoma = tested on: SK-MEL-2 melanoma
# MDA-MB-231 breast = tested on: MDA-MB-231 breast
# SF-295 CNS = tested on: SF-295 CNS
# HS 578T breast = tested on: HS 578T breast
# UACC-257 melanoma = tested on: UACC-257 melanoma
# SNB-75 CNS = tested on: SNB-75 CNS
# A549 NSCLC = tested on: A549 NSCLC
# HT29 colon = tested on: HT29 colon
# TK-10 renal = tested on: TK-10 renal
# M14 melanoma = tested on: M14 melanoma
# OVCAR-4 ovarian = tested on: OVCAR-4 ovarian
# RPMI-8226 leukemia = tested on: RPMI-8226 leukemia
# SK-MEL-28 melanoma = tested on: SK-MEL-28 melanoma
# KM12 colon = tested on: KM12 colon
# T-47D breast = tested on: T-47D breast
# MOLT-4 leukemia = tested on: MOLT-4 leukemia
# HCT-15 colon = tested on: HCT-15 colon
# UO-31 renal = tested on: UO-31 renal
# HCC-2998 colon = tested on: HCC-2998 colon
# K-562 leukemia = tested on: K-562 leukemia
# NCI-H522 lung = tested on: NCI-H522 lung
# ACHN renal = tested on: ACHN renal
compound,measurement,setting,value
C#C[C@@]1(O)[C@@H](CO)O[C@@H](n2cc(Br)c3c(Cl)ccnc32)[C@@H]1O,GI50,HL-60(TB) leukemia,1030 nM
same,TGI,HL-60(TB) leukemia,3.69 µM
same,GI50,HOP-92 NSCLC,115 nM
same,TGI,HOP-92 NSCLC,916 nM
same,GI50,MCF7 breast,394 nM
same,TGI,MCF7 breast,> 31.6 µM
same,GI50,EKVX NSCLC,17.3 µM
same,TGI,EKVX NSCLC,> 100 µM
same,GI50,SK-MEL-5 melanoma,39.7 µM
same,TGI,SK-MEL-5 melanoma,> 100 µM
same,GI50,IGROV1 ovarian,4.86 µM
same,TGI,IGROV1 ovarian,> 100 µM
same,GI50,NCI-H23 lung,1860 nM
same,TGI,NCI-H23 lung,> 100 µM
same,GI50,A498 renal,303 nM
same,TGI,A498 renal,2550 nM
same,GI50,MALME-3M melanoma,32.3 µM
same,TGI,MALME-3M melanoma,> 100 µM
same,GI50,BT-549 breast,522 nM
same,TGI,BT-549 breast,12.2 µM
same,GI50,UACC-62 melanoma,15.6 µM
same,TGI,UACC-62 melanoma,> 100 µM
same,GI50,NCI/ADR-RES ovarian,422 nM
same,TGI,NCI/ADR-RES ovarian,5.03 µM
same,GI50,COLO 205 colon,881 nM
same,TGI,COLO 205 colon,> 100 µM
same,GI50,CAKI-1 renal,602 nM
same,TGI,CAKI-1 renal,> 100 µM
same,GI50,SK-OV-3 ovarian,3.66 µM
same,TGI,SK-OV-3 ovarian,> 100 µM
same,GI50,PC-3 prostate,217 nM
same,TGI,PC-3 prostate,874 nM
same,GI50,SW-620 colon,552 nM
same,TGI,SW-620 colon,> 100 µM
same,GI50,HCT-116 colon,859 nM
same,TGI,HCT-116 colon,> 100 µM
same,GI50,OVCAR-8 ovarian,343 nM
same,TGI,OVCAR-8 ovarian,1910 nM
same,GI50,SR leukemia,1060 nM
same,TGI,SR leukemia,> 100 µM
same,GI50,OVCAR-5 ovarian,1960 nM
same,TGI,OVCAR-5 ovarian,> 100 µM
same,GI50,NCI-H226 lung,1080 nM
same,TGI,NCI-H226 lung,> 27 µM
same,GI50,SN12C renal,590 nM
same,TGI,SN12C renal,> 100 µM
same,GI50,MDA-MB-435,8.06 µM
same,TGI,MDA-MB-435,> 100 µM
same,GI50,NCI-H460 lung,4.29 µM
same,TGI,NCI-H460 lung,> 100 µM
same,GI50,DU-145 prostate,454 nM
same,TGI,DU-145 prostate,4.79 µM
same,GI50,U251 CNS,40 µM
same,TGI,U251 CNS,> 100 µM
same,GI50,786-0 renal,1680 nM
same,TGI,786-0 renal,> 100 µM
same,GI50,CCRF-CEM leukemia,386 nM
same,TGI,CCRF-CEM leukemia,> 100 µM
same,GI50,SNB-19 CNS,1540 nM
same,TGI,SNB-19 CNS,> 100 µM
same,GI50,SF-268 CNS,10.5 µM
same,TGI,SF-268 CNS,> 100 µM
same,GI50,SF-539 CNS,357 nM
same,TGI,SF-539 CNS,11.1 µM
same,GI50,HOP-62 NSCLC,1310 nM
same,TGI,HOP-62 NSCLC,> 100 µM
same,GI50,OVCAR-3 ovarian,621 nM
same,TGI,OVCAR-3 ovarian,> 75 µM
same,GI50,RXF 393 renal,283 nM
same,TGI,RXF 393 renal,1230 nM
same,GI50,LOX IMVI melanoma,289 nM
same,TGI,LOX IMVI melanoma,2150 nM
same,GI50,SK-MEL-2 melanoma,35.2 µM
same,TGI,SK-MEL-2 melanoma,> 100 µM
same,GI50,MDA-MB-231 breast,289 nM
same,TGI,MDA-MB-231 breast,1940 nM
same,GI50,SF-295 CNS,1030 nM
same,TGI,SF-295 CNS,> 100 µM
same,GI50,HS 578T breast,1010 nM
same,TGI,HS 578T breast,> 100 µM
same,GI50,UACC-257 melanoma,> 100 µM
same,TGI,UACC-257 melanoma,> 100 µM
same,GI50,SNB-75 CNS,657 nM
same,TGI,SNB-75 CNS,> 39.2 µM
same,GI50,A549 NSCLC,7.01 µM
same,TGI,A549 NSCLC,> 100 µM
same,GI50,HT29 colon,964 nM
same,TGI,HT29 colon,> 100 µM
same,GI50,TK-10 renal,> 67 µM
same,TGI,TK-10 renal,> 100 µM
same,GI50,M14 melanoma,17 µM
same,TGI,M14 melanoma,> 100 µM
same,GI50,OVCAR-4 ovarian,677 nM
same,TGI,OVCAR-4 ovarian,> 100 µM
same,GI50,RPMI-8226 leukemia,1730 nM
same,TGI,RPMI-8226 leukemia,5.97 µM
same,GI50,SK-MEL-28 melanoma,> 100 µM
same,TGI,SK-MEL-28 melanoma,> 100 µM
same,GI50,KM12 colon,45.2 µM
same,TGI,KM12 colon,> 100 µM
same,GI50,T-47D breast,394 nM
same,TGI,T-47D breast,> 19.9 µM
same,GI50,MOLT-4 leukemia,324 nM
same,TGI,MOLT-4 leukemia,3.05 µM
same,GI50,HCT-15 colon,550 nM
same,TGI,HCT-15 colon,> 100 µM
same,GI50,UO-31 renal,2160 nM
same,TGI,UO-31 renal,> 100 µM
same,GI50,HCC-2998 colon,2890 nM
same,TGI,HCC-2998 colon,> 100 µM
same,GI50,K-562 leukemia,542 nM
same,TGI,K-562 leukemia,> 100 µM
same,GI50,NCI-H522 lung,3.64 µM
same,TGI,NCI-H522 lung,> 100 µM
same,GI50,ACHN renal,1740 nM
same,TGI,ACHN renal,> 100 µM
